Assay results taken from PubChem BioAssay (NCI).
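Interpolation was linear, between the two tested concentrations surrounding the appropriate level; five concentrations were tested over 48 hours in 96-well plates. At the GI50, growth is halved. TGI is the concentration that stops growth completely.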

How the values were obtained:
Test in all cases: inhibition of tumour cell growth, NCI panel, 48 h
A549 NSCLC = tested on: A549 NSCLC
COLO 205 colon = tested on: COLO 205 colon
HCT-15 colon = tested on: HCT-15 colon
HL-60(TB) leukemia = tested on: HL-60(TB) leukemia
NCI-H23 lung = tested on: NCI-H23 lung
NCI-H460 lung = tested on: NCI-H460 lung
OVCAR-4 ovarian = tested on: OVCAR-4 ovarian
SF-539 CNS = tested on: SF-539 CNS
SR leukemia = tested on: SR leukemia
TK-10 renal = tested on: TK-10 renal
LOX IMVI melanoma = tested on: LOX IMVI melanoma
RPMI-8226 leukemia = tested on: RPMI-8226 leukemia

| SMILES | TGI (A549 NSCLC) [µM] | TGI (COLO 205 colon) [µM] | TGI (HCT-15 colon) [µM] | TGI (HL-60(TB) leukemia) [µM] | TGI (NCI-H23 lung) [µM] | TGI (NCI-H460 lung) [µM] | TGI (OVCAR-4 ovarian) [µM] | TGI (SF-539 CNS) [µM] | TGI (SR leukemia) [µM] | TGI (TK-10 renal) [µM] | TGI (LOX IMVI melanoma) [µM] | TGI (RPMI-8226 leukemia) [µM] | GI50 (A549 NSCLC) [µM] | GI50 (COLO 205 colon) [µM] | GI50 (LOX IMVI melanoma) [µM] | GI50 (NCI-H23 lung) [µM] | GI50 (NCI-H460 lung) [µM] | GI50 (OVCAR-4 ovarian) [µM] | GI50 (SF-539 CNS) [µM] | GI50 (TK-10 renal) [µM] |
| --- | --- | --- | --- | --- | --- | --- | --- | --- | --- | --- | --- | --- | --- | --- | --- | --- | --- | --- | --- | --- |
| O=c1ccc2nc3cc(Br)ccc3sc-2c1 | > 100 | > 100 | > 100 | 37.5 | > 100 | > 100 | > 100 | > 100 | > 100 | > 100 | – | – | – | – | – | – | – | – | – | – |
| O=C(CSc1nc2ccc([N+](=O)[O-])cc2s1)c1ccc2ccccc2c1 | > 100 | > 100 | > 100 | > 100 | > 100 | > 100 | > 100 | > 100 | – | > 100 | > 100 | > 100 | – | – | – | – | – | – | – | – |
| COc1cc2oc(=O)ccc2cc1C(=O)CC(C)C | > 100 | > 100 | > 100 | > 100 | > 100 | > 100 | > 100 | > 100 | > 100 | > 100 | > 100 | > 100 | – | – | – | – | – | – | – | – |
| CN(C)c1ccc(C=Nc2ccc(Oc3ccc(Cl)cc3)c(Cl)c2)cc1 | 53.4 | 45.2 | 41.7 | 40.1 | 39.9 | 42.1 | 66.4 | 39.8 | 32.9 | > 100 | 47.6 | 72.3 | – | – | – | – | – | – | – | – |
| CC(=O)OC1CC[C@@]2(C)C(=CC[C@@H]3[C@@H]2CC[C@]2(C)Nc4nn(S(C)(=O)=O)cc4C[C@@H]32)C1 (stereo not given in full) | – | > 100 | 89.4 | – | > 100 | 72.5 | – | – | > 100 | – | – | > 100 | – | – | – | – | – | – | – | – |
| Cn1cnc([N+](=O)[O-])c1Sc1nc(N)nc2c1ncn2C1OC(CO)C(O)C1O (stereo not given) | > 91 | 23.8 | > 100 | 28.4 | 41.4 | 28.1 | > 100 | 85.6 | > 35.6 | 87.6 | > 21.4 | > 95.5 | – | – | – | – | – | – | – | – |
| Cn1c(=O)[nH]c2nncnc2c1=O | > 525 | 501 | > 625 | 55.2 | 420 | 245 | > 319 | 246 | – | – | > 625 | 389 | – | – | – | – | – | – | – | – |
| OC(c1ccccc1)(c1ccccc1)c1nccc2ccccc12 | > 100 | > 100 | > 100 | > 100 | 89.5 | 43.7 | > 100 | – | > 100 | > 100 | 44.3 | > 100 | – | – | – | – | – | – | – | – |
| O=C(O)c1ccc(C(=O)c2ccccc2C(=O)O)cc1C(=O)O | > 100 | > 100 | > 100 | > 100 | > 100 | > 100 | > 100 | > 100 | > 100 | > 100 | > 100 | > 100 | – | – | – | – | – | – | – | – |
| CC(C)(C)OC(=O)NC(CCCCNC(=O)OCc1ccccc1)C(=O)NCCNc1ccc(NCCNC(=O)C(CCCCNC(=O)OCc2ccccc2)NC(=O)OC(C)(C)C)c2c1C(=O)c1ccccc1C2=O (stereo not given) | > 100 | > 100 | > 100 | – | > 100 | > 100 | > 100 | > 52.8 | > 100 | > 100 | > 100 | > 27.4 | – | – | – | – | – | – | – | – |
| COc1ccc(C(=O)C2=NON3OC23C(=O)c2ccc(OC)cc2)cc1 (stereo not given) | 48.5 | 21.7 | 36.6 | – | 17.8 | 40 | 16.2 | 24 | – | 34.1 | 11.4 | > 50.7 | – | – | – | – | – | – | – | – |
| Cc1coc2c1C[C@@]1(C)[C@H](CCC[C@@H]1C)[C@H]2O | – | > 100 | > 100 | 44.6 | > 100 | > 100 | 68.4 | 62.8 | 64.8 | > 100 | > 100 | 62.3 | – | – | – | – | – | – | – | – |
| OCc1cn(C(c2ccccc2)(c2ccccc2)c2ccccc2)cn1 | > 100 | > 100 | > 100 | > 100 | > 100 | > 100 | > 100 | – | > 100 | > 100 | > 100 | > 100 | – | – | – | – | – | – | – | – |
| COc1nc2[nH]ccc2c(=O)[nH]1 | > 100 | > 100 | – | > 100 | > 100 | > 100 | > 100 | > 100 | > 100 | > 100 | > 100 | > 100 | – | – | – | – | – | – | – | – |
| N#CC12Cc3cc4c(cc3-c3cccc(c31)CCN2C(=O)c1ccccc1)OCO4 (stereo not given) | > 100 | > 100 | – | > 100 | > 100 | – | – | > 100 | > 100 | > 100 | > 100 | > 100 | – | – | – | – | – | – | – | – |
| COCC1CCCN1c1ccc(C=N/C(C#N)=C(\N)C#N)cc1 (stereo not given) | > 100 | > 100 | – | – | > 100 | > 100 | > 100 | > 100 | – | > 100 | > 100 | – | 14 | > 100 | > 100 | > 100 | > 100 | > 100 | 40.3 | 49.2 |
